Test results taken from article PMC12196476, “New Nitrogen-, Oxygen-, and Sulfur-Containing Heterocyclic Compounds as Anti-Colon Cancer Agents: Synthesis, Multitargeted Evaluations, Molecular Docking Simulations and ADMET Predictions” (Pharmaceuticals, 2025).

What was measured:
HCT-116 cells = assay: Annexin V-FITC/PI apoptosis assay, HCT-116; assay type: cell-based, human; conditions: 30 µg/mL, 48 h
Method: Translocation of phosphatidylserine (PS) residues on the cell surface is an early apoptosis indicator, detectable through flow cytometric analysis and using double staining with propidium iodide (PI) dye and fluorescein isothiocyanate (FITC)-conjugated Annexin V (Annexin V-FITC). […]
μg/mL for 48 h. […]
S3.2.6. Annexin-V-FITC assay. […]
treatment with compound 3d. HCT-116 and LoVo cells were treated with vehicle (DMSO) and 3d […]
in Annexin-V binding buffer (BioVision Research Products, USA). The cells were then stained with Annexin V-FITC and propidium iodide (PI). Using the FITC signal detector (usually FL1) for […]
(§1) of stained cancerous cells were determined. […]

[1] = DPPH radical scavenging assay; conditions: three independent experiments; read-out: Mean IC50 (mM) for initial DPPH radicals ± SD
LoVo cells = assay: Mitochondrial membrane potential (TMRE staining), LoVo; assay type: cell-based, human; conditions: 30 µg/mL, 48 h
Method: To assess mitochondrial integrity, TMRE staining was used to measure ΔΨm.
The mitochondrial transmembrane potential was measured using a tetramethylrhodamine, ethyl ester (TMRE) mitochondrial membrane potential assay kit. […]
medium served used as negative and positive controls, respectively. Percentages of viable cells […]
wells (final concentration of 100 μg/mL), compared to the negative control, and expressed as mean value (%) ± SD from two replicates. Graphing dose-response curves representing the compound […]
(HUVECs) at final concentration of 100 μg/mL . HUVECs were grown in Dulbecco’s Modified Eagle’s Medium supplemented with 10% FBS, 2 mM glutamine (Sigma Aldrich), 100 units/mL penicillin and […] streptomycin (Life Technologies; Paisley, UK).
S3.2.5. Cell cycle assay.
HCT-116 and LoVo cultures upon treatment with compound 3d. HCT-116 and LoVo carcinoma […]
μg/mL for 48 h. […] Then, cells […]
were fixed by mixing […] of 90% cold ethanol and stained with propidium iodide (PI) for 1 h at 37 °C. […]
as §1
carcinoma cells treated with compound 3d was assessed using the TMRE Mitochondrial Membrane […]
for TMRE staining. TMRE was excited using a 488 nm laser and detected in the FL2 channel at 575 […]
S3.2.9. Quantification of the Expression Levels of Bax, Bcl-2 and Caspase-3 Genes […]

For COc1cc(/C=N/c2ncnc3sc4c(c23)CCCC4)cc(OC)c1OC [Compound 3d, (E)-N-(5,6,7,8-Tetrahydrobenzo[4,5]thieno[2,3-d]pyrimidin-4-yl)-1-(3,4,5-trimethoxyphenyl)methanimine], the “Necrotic population (Annexin-V−/PI+), HCT-116” value (HCT-116 cells; Figure 3D plot) was 1.53%, the “Late apoptotic cells (both Annexin-V and PI positive), HCT-116” value (HCT-116 cells; Figure 3D plot, control 0.15%) was 3.63% and the “Early apoptotic cells (Annexin V-FITC positive and PI negative), HCT-116” value (HCT-116 cells; Figure 3D plot, control 0.46%) was 19.02%. The “% of cell population, Mean necrosis (HCT-116)” value (HCT-116 cells; mean of two independent experiments (Figure 3E)) was 1.63%, the “% of cell population, Mean total death (HCT-116)” value (HCT-116 cells; mean of two independent experiments (Figure 3E), text calls it total apoptosis) was 25.11% and the IC50 [1] was 0.164 ± 0.008 mM. The “Reduction of mitochondrial membrane potential (ΔΨm), LoVo cells” value (LoVo cells) was 60.23 ± 1.87%.
